Results taken from US20200030388A1, “COMPOSITIONS FOR MODIFYING GUT MICROBIOTA” (priority 2017, published 2020).
“And” between values parts separate entries of the source, which are not always exact repeats. Equal entries are not always repeated. Marks after values point to notes of the source that are not given here.

What was measured:
[1] = tested on: HFD-induced Obesity in C57BL/6 mice; assay: HFD-induced obesity in C57BL/6 mice, 13 weeks (Example 2); format: in vivo, mouse; conditions: for GPT / HDL / LDL / LDL/HDL / T-CHO / TG: plasma; for percentage frequency of adipocytes, Adipocyte Size area 2000 / percentage frequency of adipocytes, Adipocyte Size area 15000 / percentage frequency of adipocytes, Adipocyte Size area >350000: perigonadal adipose tissue
Source text: After one week of acclimation, animals were randomly distributed into normal diet (ND, 15% energy as fat), HFD (50% energy as fat), and HFD with 0.1% or 0.5% garcinol groups of eight mice in each group for 13 weeks. The experimental diets were modified from the Purina 5001 diet (LabDiet, PMI Nutrition International, St. Louis, Mo., USA). The animals had ad libitum access to food and water. Food cups were replenished with a fresh diet every day. […] Upon termination of the study, the animals were sacrificed by CO2 asphyxiation and dissected, and the weights of their whole bodies and selected tissues, including the liver, kidney, spleen, adipose tissues (perigonadal, retroperitoneal, and mesenteric fat) and serum were immediately collected, weighed, and photographed.
Sections of 3-5 μm in thickness were cut, deparaffinized, rehydrated, stained with H&E, and subjected to photomicroscopic assessment. Adipocyte size was determined using Image J software (Rasband, W. S., ImageJ, U.S. National Institutes of Health, Bethesda, Md., USA).
Blood samples were collected from the left ventricle under anesthesia. The samples were mixed in 10 μL of heparin sodium and centrifuged at 3500 rpm and 4° C. for 10 min. The plasma was then stored at −80° C. until use. Glutamic-pyruvic transaminase (GPT), total cholesterol (TC), TG, high-density lipoprotein (HDL), and low-density lipoprotein (LDL) levels were analyzed at the National Laboratory Animal Center, NLAC (Taipei, Taiwan) on a 7080 Biochemical Analyzer (Hitachi, Tokyo, Japan) according to the manufacturer's instructions.

[2] = tested on: Gut Microbiota in HFD-Fed Mice; assay: Gut microbiota classification by next generation sequencing (Example 4); format: in vivo, mouse
Protocol: Total DNA was extracted from fresh fecal samples by using the innuPREP Stool DNA kit (Analytik Jena AG, Jena, Germany) according to the manufacturer's instructions. According to the concentration, DNA was diluted to 1 ng μ L^−1 using sterile water. 6SrRNA/18SrRNA/ITS genes of distinct region (16SV4/16SV3/16SV3-V4/16SV4-V5, 18S V4/18S V9, ITS1/ITS2, Arc V4) were amplified using a specific primer (e.g. 16SV4: 515F-806R, 18S V4: 528F-706R, and 18S V9: 1380F-1510R) with a barcode. All PCR reactions were carried out using a Phusion® High-Fidelity PCR master mix (New England Biolabs, Ipswich, Mass., USA). The PCR products were mixed in ratios of equal density. Then, the mixed PCR products were purified using a Qiagen gel extraction kit (Qiagen, Hilden, Germany). Sequencing libraries were generated using the TruSeq® DNA PCR-free sample preparation kit (Illumina, San Diego, Calif., USA) following the manufacturer's recommendations, and index codes were added. The library quality was assessed using the Qubit@ 2.0 Fluorometer (Thermo Scientific) and Agilent Bioanalyzer 2100 system. Lastly, the library was sequenced using an Illumina HiSeq 2500 platform, and 250 bp paired-end reads were generated. The classification was based on the Greengenes database (https://greengenes.lbl.gov/).

[3] = tested on: High Fat Diet Induced Obesity in C57 Mice; assay: High fat diet induced obesity in C57 mice, 16 weeks (Example 1); format: in vivo, mouse; conditions: for Change in weight / Final weight / Kidney weight / Pancreas Weight / Spleen Weight / Mesenteric Fat / Peri-gonadal Fat / Retroperitoneal Fat: HFD; for Change in weight / Final weight / Mesenteric Fat / Peri-gonadal Fat / Retroperitoneal Fat: 120 days
Protocol: C57/BL6 mice, 6-8 weeks of age and 8 animals/Group (4 Male and 4 Female) were used for the study. Animals were housed under standard laboratory conditions, air-conditioned with adequate fresh air supply (12-15 Air changes per hour), room temperature 20.2-23.5° C. and relative humidity 58-64% with 12 hours fluorescent light and 12 hours dark cycle. The temperature and relative humidity was recorded once daily.
The animals were fed with Normal diet (9 kcal/day) and High fat diet (50 kcal/day) throughout the acclimatization and experimental period.
The design of the study groups is depicted in table 2.
Body weight of the animals was recorded in all the days of experimental period. At the end of the experimental period, the animals were sacrificed by cervical dislocation. Blood was collected and Serum was separated by centrifugation and used for the analysis of biochemical parameters. The organs such as Liver Kidney, Spleen and Pancreas and Fat Tissues (Retroperitoneal, Peri-gonadal and Mesenteric) were dissected out and washed in phosphate buffered saline.
The following parameters were measured in the above groups: • Measurement of Body weight • Determination of Organ Weight • Estimation of Cholesterol (Zak et al., ([…]) A new method for the determination of serum cholesterol. J Clin Endocrinol Metab., 94(7), 2215-2220) • Estimation of Triglycerides (Foster L. B and Dunn R. T. (1973) Stable reagents for determination of serum triglycerides by a colorimetric Hantzsch condensation method. Clin Chem. 196, 338-340). • Estimation of HDL Cholesterol (Burstein et al., (1970). Determination of HDL cholesterol. J. lipid Res., 11, 583). • Determination of LDL and VLDL (Friedewald et al., (1972) Estimation of the concentration of Low Density Lipoprotein cholesterol in plasma without use of preparative centrifuge. J. Clin Chem.; 18:499).

[4] = tested on: Mouse 3T3-L1 pre-adipocytes; assay: Adipogenesis inhibition in 3T3-L1 cells, Oil red O staining; format: cell-based; conditions: 3T3-L1 adipocytes, read-out: inhibition of lipid accumulation
Protocol: Garcinol (20%) stock of 10 mg/ml was prepared in DMSO and filtered through 0.2 micron syringe filter. Stock was diluted 1000 times in DMEM to get 10 μg/ml final concentration and serially diluted. Insulin (Hi Media) was bought as a solution at a concentration of 20 mg/ml. This was diluted to 1 μg/ml in DMEM. IBMX-(Sigma)—Stock of 5 mM was prepared in DMEM, and diluted 10 times to be used at a final concentration of 0.5 mM. Dexamethasone (Sigma)—A stock of […] was prepared in DMEM and diluted 40 times to get a final concentration of 0.25 μM
Mouse 3T3-L1 pre-adipocytes were cultured in DMEM containing 25 mM glucose with 10% heat-inactivated fetal calf serum with antibiotics at 37° C. and 5% CO2. When the cells were 70-80% confluent, they were trypsinized, washed and seeded in 6 well plates at a density of 2×10^6 cells per well. Cells were induced to differentiate 2 d after reaching confluence (day 0), by supplementing DMEM media containing 10% Fetal Bovine Serum (FBS) along with 1 μg/mL insulin, 0.25 μM dexamethasone, 0.5 mM 1-methyl-3-isobutyl-xanthine (IBMX) and different concentrations of Garcinol (20%). From day 3 until day 7, cells were maintained in progression media supplemented with 1 μg/mL insulin and different concentrations of Garcinol (20%). […] Quantification for amount of triglycerides accumulated in adipocytes was done by Oil red O staining.

[5] = tested on: HFD-fed C57BL/6 male mice; assay: Garcinol versus garcinol blend in HFD-fed C57BL/6 mice, 16 weeks (Example 3); format: in vivo, mouse
Protocol: The present invention studied the anti-obesity effects of garcinol compared to a composition comprising garcinol, pterostilbene and anthocyanin (garcinol blend (GB) in mammals. The study was conducted in vivo on 5 weeks old C57BL/6 male mice. A total of 42 mice were involved in this study with 6 groups of 7 mice each. The groups were divided as in table 8.
The high fat diet (HFD) groups were fed 45% high fat diet for 16 weeks for the induction of obesity and concurrently administered the test substance as indicated in the aforesaid table. The normal group was fed with normal diet for 16 weeks.
Body weight was monitored weekly, and the average body weight of each group (n=7) was expressed as the means±SE.

[6] = tested on: HFD-Induced Obese Mice (C57BL/6); assay: GAR, FOR, LMIX, HMIX in HFD-induced obese mice, 12 weeks (Example 4)
Protocol: Four-week-old, male C57BL/6 mice were purchased from the BioLASCO Experimental Animal Center (Taiwan Co., Ltd., Taipei, Taiwan) and housed in a controlled atmosphere (25±1° C. at 50% relative humidity) with a 12 h light/12 h dark cycle. After 1 week of acclimation, animals were randomly distributed into 6 groups as follows: normal diet (ND, 15% energy from fat), high-fat diet (HFD, 50% energy from lard-based fat), and HFD supplemented with 0.01% garcinol (GAR group), 0.025% Forskolin (FOR group), 0.005% GAR+0.025% FOR (LMIX group), and 0.01% Gar+0.025% For (HMIX group) for 12 weeks. […] Animals had free access to food and water. Food consumption was monitored daily and the body weight was recorded weekly. At the end of the experiments, all animals were sacrificed by CO2 asphyxiation. Blood samples were collected from the heart for biochemical analysis. The liver, spleen, kidney, fat pads (perigonadal, retroperitoneal, and mesenteric fat), and fresh fecal pellets were immediately removed and stored at −80° C. until further analysis.
Liver and the perigonadal adipose tissue were dissected and fixed in 10% buffered formalin for at least 24 h, dehydrated with a sequence of ethanol solutions, and processed for embedding in paraffin. Sections of 4 μm in thickness were cut, deparaffinized, rehydrated, stained with hematoxylin and eosin (H&E), and subjected to photo microscopic observation. Adipocyte size was measured at 100× magnification and determined by Image J software (U. S. National Institutes of Health, Bethesda, Md., USA).

GPT ([1]; HFD + 0.1% Gar): 20.5 ± 7.26^b U/L | GPT ([1]; HFD + 0.5% Gar): 27.6 ± 3.72^ab U/L | Kidney weight ([3]; Group III: garcinol 5 mg/kgbw): 0.49 ± 0.03 g wet tissue | Pancreas Weight ([3]; Group III: garcinol 5 mg/kgbw): 0.23 ± 0.01 g wet tissue | Spleen Weight ([3]; Group III: garcinol 5 mg/kgbw): 0.25 ± 0.02 g wet tissue | Kidney weight ([3]; Group IV: garcinol 10 mg/kgbw): 0.42 ± 0.03 g wet tissue | Pancreas Weight ([3]; Group IV: garcinol 10 mg/kgbw): 0.17 ± 0.01 g wet tissue | Spleen Weight ([3]; Group IV: garcinol 10 mg/kgbw): 0.20 ± 0.01 g wet tissue | Kidney weight ([3]; Group V: garcinol 20 mg/kgbw): 0.45 ± 0.06 g wet tissue | Pancreas Weight ([3]; Group V: garcinol 20 mg/kgbw): 0.21 ± 0.02 g wet tissue | Spleen Weight ([3]; Group V: garcinol 20 mg/kgbw): 0.22 ± 0.03 g wet tissue | Kidney weight ([3]; Group VI: garcinol 40 mg/kgbw): 0.42 ± 0.04 g wet tissue | Pancreas Weight ([3]; Group VI: garcinol 40 mg/kgbw): 0.22 ± 0.02 g wet tissue | Spleen Weight ([3]; Group VI: garcinol 40 mg/kgbw): 0.23 ± 0.02 g wet tissue | Kidney ([6]; organ weight): 0.4 ± 0.03^a g | Spleen ([6]; organ weight): 0.06 ± 0.01^a g
Structure (SMILES): C=C(C)[C@@H](CC=C(C)C)C[C@@]12C[C@@H](CC=C(C)C)C(C)(C)[C@@](CC=C(C)C)(C(=O)C(C(=O)c3ccc(O)c(O)c3)=C1O)C2=O [garcinol]
decrease of mesenteric fat weight compared to the HFD group ([1]; 0.5% garcinol, HFD, 13 weeks): 77.7% | decrease of perigonadal fat weight compared to the HFD group ([1]; 0.5% garcinol, HFD, 13 weeks): 85.1% | decrease of retroperitoneal fat weight compared to the HFD group ([1]; 0.5% garcinol, HFD, 13 weeks): 92.4% | HDL ([1]; HFD + 0.1% Gar): 152.6 ± 9.73^a mg/dL | LDL ([1]; HFD + 0.1% Gar): 33.3 ± 0.72^b mg/dL | LDL/HDL ([1]; HFD + 0.1% Gar): 0.22 ± 0.02^b | T-CHO ([1]; HFD + 0.1% Gar): 179.7 ± 11.85^b mg/dL | TG ([1]; HFD + 0.1% Gar): 69.6 ± 19.90^ab mg/dL | percentage frequency of adipocytes, Adipocyte Size area 2000 ([1]; HFD + 0.1% garcinol): 8.38 ± 5.3^b | percentage frequency of adipocytes, Adipocyte Size area 15000 ([1]; HFD + 0.1% garcinol): 4.03 ± 1.0^a | percentage frequency of adipocytes, Adipocyte Size area >350000 ([1]; HFD + 0.1% garcinol): 3.32 ± 1.5^b | HDL ([1]; HFD + 0.5% Gar): 118.7 ± 13.22^b mg/dL | LDL ([1]; HFD + 0.5% Gar): 24.9 ± 4.47^c mg/dL | LDL/HDL ([1]; HFD + 0.5% Gar): 0.21 ± 0.03^b | T-CHO ([1]; HFD + 0.5% Gar): 137.9 ± 11.78^c mg/dL | TG ([1]; HFD + 0.5% Gar): 55.6 ± 4.95^b mg/dL | percentage frequency of adipocytes, Adipocyte Size area 2000 ([1]; HFD + 0.5% garcinol): 19.2 ± 3.9^a | percentage frequency of adipocytes, Adipocyte Size area 15000 ([1]; HFD + 0.5% garcinol): 1.36 ± 0.9^b | percentage frequency of adipocytes, Adipocyte Size area >350000 ([1]; HFD + 0.5% garcinol): 0.00 ± 0.0^c | abundance of Firmicutes ([2]; 12 weeks (HFD group 43.0%)): 33.9% | abundance of Bacteroidetes ([2]; 12 weeks (HFD group 50.2%)): 62.4% | OTUs difference between ND and HFD groups (Venn diagram) ([2]; 12 weeks, FIG. 23A): 26 OTUs | Change in weight ([3]; G5: garcinol 5 mg/kgbw): 10.03 ± 2.25 g | Final weight ([3]; G5: garcinol 5 mg/kgbw): 29.33 ± 1.47 g | Change in weight ([3]; G10: garcinol 10 mg/kgbw): 10.25 ± 1.39 g | Final weight ([3]; G10: garcinol 10 mg/kgbw): 28.25 ± 1.39 g | Change in weight ([3]; G20: garcinol 20 mg/kgbw): 7.62 ± 2.18 g | Final weight ([3]; G20: garcinol 20 mg/kgbw): 27.37 ± 1.88 g | Change in weight ([3]; G40: garcinol 40 mg/kgbw): 6.28 ± 1.03 g | Final weight ([3]; G40: garcinol 40 mg/kgbw): 26.00 ± 1.33 g | Mesenteric Fat ([3]; Group III: garcinol 5 mg/kgbw): 0.63 ± 0.07 g wet tissue | Peri-gonadal Fat ([3]; Group III: garcinol 5 mg/kgbw): 1.33 ± 0.32 g wet tissue | Retroperitoneal Fat ([3]; Group III: garcinol 5 mg/kgbw): 0.45 ± 0.06 g wet tissue | Mesenteric Fat ([3]; Group IV: garcinol 10 mg/kgbw): 0.56 ± 0.05 g wet tissue | Peri-gonadal Fat ([3]; Group IV: garcinol 10 mg/kgbw): 1.17 ± 0.22 g wet tissue | Retroperitoneal Fat ([3]; Group IV: garcinol 10 mg/kgbw): 0.43 ± 0.05 g wet tissue | Mesenteric Fat ([3]; Group V: garcinol 20 mg/kgbw): 0.601 ± 0.08 g wet tissue | Peri-gonadal Fat ([3]; Group V: garcinol 20 mg/kgbw): 1.35 ± 0.21 g wet tissue | Retroperitoneal Fat ([3]; Group V: garcinol 20 mg/kgbw): 0.46 ± 0.06 g wet tissue | Mesenteric Fat ([3]; Group VI: garcinol 40 mg/kgbw): 0.59 ± 0.05 g wet tissue | Peri-gonadal Fat ([3]; Group VI: garcinol 40 mg/kgbw): 1.41 ± 0.14 g wet tissue | Retroperitoneal Fat ([3]; Group VI: garcinol 40 mg/kgbw): 0.46 ± 0.04 g wet tissue | weight of the organs (adverse effects) ([3]; kidney, spleen, pancreas, Table 5): did not adversely affect | inhibition at 5 µg/mL ([4]; 5 μg/ml): 47.8% | inhibition at 10 µg/mL ([4]; 10 μg/ml): 47.2% | Final weight ([5]; HFD + 0.1% test substance): 32.1 ± 2.6^b g | Weight gain ([5]; HFD + 0.1% test substance): 10.5 ± 2.1^b g | Final weight ([5]; HFD + 0.5% test substance): 25.4 ± 0.8^b g | Weight gain ([5]; HFD + 0.5% test substance): 3.9 ± 0.6^b g | Weight gain ([6]; 0.01% GAR, 0.025% FOR, LMIX, HMIX): 12.7 ± 2.0^b g | Final weight ([6]; 0.01% GAR, 0.025% FOR, LMIX, HMIX, listed as GAR): 34.4 g and 34.4 ± 2.6^b g | Liver ([6]; organ weight): 1.6 ± 0.2^b g
